Test results as given in patent US7741337B2, “Azonafide derivatives, methods for their production and pharmaceutical compositions therefrom” (Unibioscreen S.A., priority 2005, dated 2010).
Where a name gives a salt, the structure may show the parent alone. Read-outs that look alike come from different tables or passages of the source.

Key:
[1] = test system: human cancer cell lines Hs683, U-373MG, HCT-15, LoVo, A549 and MCF-7; experiment: MTT test, effect on overall cell growth (mean of six cell lines, examples 3 to 26); assay type: cell-based; conditions: mean of six cell lines Hs683, U-373MG, A549, MCF-7, 72 hours incubation, range of molar concentrations resulting in 50% inhibition of overall tumor cells growth
Description: (§1) MTT tests were performed in order to rapidly, i.e. within 5 days, measure the effect of azonafide derivatives of this invention on the overall cell growth. The test measures the number of metabolically active living cells that are able to transform the yellow product 3-(4,5-dimethylthiazol-2-yl)-2,5-diphenyl tetrazolium bromide (herein referred as MTT) into the blue product formazan dye by mitochondrial reduction. The amount of formazan obtained at the end of the experiment, measured by means of a spectrophotometer, is directly proportional to the number of living cells. Optical density determination thus enables a quantitative measurement of the effect of the investigated compounds as compared to the control condition (untreated cells) and/or to other reference compounds.
(§2) Height human cancer cell lines described in table 1 were used in the following MTT tests. These cell lines cover six histological cancer types, being prostate, glioma, pancreas, colon, lung and breast cancers. Cells were allowed to grow in 96-well micro-wells with a flat bottom with an amount of 100 μl of cell suspension per well with 1,000 to 4,000 cells/well depending on the cell type used. Each cell line was seeded in a well known MEM 5% serum culture medium.
(§3) The detailed experimental procedure was as following: after a 24-hour period of incubation at 37° C., the culture medium was replaced by 100 μl of fresh medium in which the compound to be tested was dissolved at the following molar concentrations: 10^−9 M, 5.10^−9 M, 10^−8 M, 5.10^−8 M, 10^−7 M, 5.10^−7 M, 10^−6 M, 5.10^−6 M and 10^−5 M. Each experiment was repeated 6 times.
(§4) After 72 hours of incubation at 37° C. with (experimental conditions) or without (control condition) the compound to be tested, the medium was replaced by 100 μl MTT dissolved in RPMI at a concentration of 1 mg/ml. The micro-wells were subsequently incubated during 3 hours at 37° C. and centrifuged at 400 g during 10 minutes. MTT was removed and formazan crystals formed were dissolved in 100 μl DMSO. The micro-wells were shaken for 5 minutes and read on a spectrophotometer at wavelengths of 570 nm (maximum formazan absorbance) and 630 nm (back-ground noise).
(§5) For each experimental condition, the mean optical density was calculated, as well as the percentage of remaining living cells in comparison with the control.
(§6) IC50 values for compounds of examples 3 to 26 were obtained on cell lines Hs683, U-373MG, HCT-15, LoVo, A549 and MCF-7 described in Table 1. IC50 values for compounds from examples 27 to 45 were obtained on cell lines PC3, U-373MG, BxPC3, LoVo, A549 and MCF-7 described in Table 1.

[2] = test system: U-373 MG (Glioma cancer) cells; experiment: Effect on cell migration, U-373MG; assay type: cell-based; conditions: Homo sapiens, U373 MG, p value in same cell, read-out: Maximum effects (cell migration); for Emax at 0.1 µM: at 10^−7 M; for Emax at 1 µM: at 10^−6 M
Description: (§7) Cells of different cancer lines, i.e. U-373 MG (Glioma cancer), PC3 (prostate cancer and A549 (Lung cancer) were seeded on culture flask 48 hours before the migration experiment. On the test day, cells were treated with or without the azonafide derivatives mentioned in table 3 in closed Falcon dishes containing a buffered medium at a controlled temperature (37.0±0.1° C.) for 12 or 22 hours, as noted in the right column of table 3. The azonafide derivatives were used at three non-cytotoxic concentrations (10^−6 M, 10^−7, 10^−8 M). Migration of the cells was observed by means of a CCD-camera mounted on a phase-contrast microscope. Statistical analysis of the migration, with the non-parametric Mann-Whitney test, was established for 25% and 50% of the most motile cells and for the entire cell population.

A549 (Lung cancer) cells = experiment: Effect on cell migration, A549; assay type: cell-based; conditions: Homo sapiens, p value in same cell, read-out: Maximum effects (cell migration); for Emax at 0.1 µM: at 10^−7 M; for Emax at 1 µM: at 10^−6 M
Description: as §7

[3] = test system: U-373 MG, PC-3 and/or A549 cancer cells; experiment: Effect on cell migration, summary of table 3; assay type: cell-based, human; conditions: for migration level of cancer cells: U-373 MG, PC-3 and/or A549 cancer cells at the non-cytotoxic concentrations of this study; for cell migration activity compared with the closest compounds known in the art: comparison drawn from table 3
Description: as §7

[4] = test system: PC3 (prostate cancer) cells; experiment: Effect on cell migration, PC3; assay type: cell-based; conditions: Homo sapiens, 22 hours on the 25% of most motile cells, p value in same cell, read-out: Maximum effects (cell migration); for Emax at 1 µM: at 10^−6 M; for Emax at 0.01 µM: at 10^−8 M
Description: as §7

[5] = test system: human cancer cell lines PC3, U-373MG, BxPC3, LoVo, A549 and MCF-7; experiment: MTT test, effect on overall cell growth (mean of six cell lines, examples 27 to 45); assay type: cell-based; conditions: mean of six cell lines PC3, U-373MG, A549, MCF-7, 72 hours incubation, range of molar concentrations resulting in 50% inhibition of overall tumor cells growth
Description: as §1, §2, §3, §4, §5, §6

[6] = 22 hours on the 25% of most motile cells

| IC50 [1] [µM] | Structure (SMILES) | migration level of cancer cells [3] | cell migration activity compared with the closest compounds known in the art [3] | Emax at 1 µM [2, 6] [%] | other results |
| --- | --- | --- | --- | --- | --- |
| > 10 | CCOC(=O)Nc1cccc2cc3cccc4c3c(c12)C(=O)N(CCN(C)C)C4=O [Example 17, ethyl {2-[2-(dimethylamino)ethyl]-1,3-dioxo-2,3-dihydro-1H-dibenzo[de,h]isoquinolin-11-yl}carbamate] | induced a decrease in the migration level | significantly greater cell migration activity than the closest compounds known in the art, or similar cell migration activity at significantly lower concentrations | – | Emax at 0.1 µM [2, 6]: -42%; Emax at 0.1 µM (A549 (Lung cancer) cells; [6]): -44% |
| 5 to 10 | CN(C)CCN1C(=O)c2cccc3cc4cccc(NC(=O)Nc5ccc6c(c5)OCO6)c4c(c23)C1=O [Example 12, 1-(1,3-benzodioxol-5-yl)-3-{2-[2-(dimethylamino)ethyl]-1,3-dioxo-2,3-dihydro-1H-dibenzo[de,h]isoquinolin-11-yl}urea] | induced a decrease in the migration level | – | – | Emax at 0.1 µM [2, 6]: -20% |
| 5 to 10 | CN(C)CCN1C(=O)c2cccc3cc4cccc(N)c4c(c23)C1=O [Example 3, 11-amino-2-[2-(dimethylamino)ethyl]-1H-dibenzo[de,h]isoquinoline-1,3(2H)-dione, reference compound] | – | – | -31 | – |
| > 10 | CN(C)CCN1C(=O)c2cccc3cc4c(NC(=O)Nc5ccc6c(c5)OCO6)cccc4c(c23)C1=O [Example 14, 1-(1,3-benzodioxol-5-yl)-3-{2-[2-(dimethylamino)ethyl]-1,3-dioxo-2,3-dihydro-1H-dibenzo[de,h]isoquinolin-8-yl}urea] | induced a decrease in the migration level | – | – | Emax at 1 µM (A549 (Lung cancer) cells; [6]): -24% |
| – | CCCCOC(=O)Nc1cccc2cc3cccc4c3c(c12)C(=O)N(CCN(C)C)C4=O [Example 29, n-butyl {2-[2-(dimethylamino)ethyl]-1,3-dioxo-2,3-dihydro-1H-dibenzo[de,h]isoquinolin-11-yl}carbamate] | induced a decrease in the migration level | significantly greater cell migration activity than the closest compounds known in the art, or similar cell migration activity at significantly lower concentrations | – | IC50 [5]: > 10 µM; Emax at 0.1 µM (A549 (Lung cancer) cells; [6]): -33%; Emax at 1 µM [4]: -22% |
| – | CC(C)COC(=O)Nc1cccc2cc3cccc4c3c(c12)C(=O)N(CCN(C)C)C4=O [Example 27, isobutyl {2-[2-(dimethylamino)ethyl]-1,3-dioxo-2,3-dihydro-1H-dibenzo[de,h]isoquinolin-11-yl}carbamate] | induced a decrease in the migration level | – | – | IC50 [5]: > 10 µM; Emax at 1 µM (A549 (Lung cancer) cells; [6]): -28% |
| 5 to 10 | COC(=O)Nc1cccc2cc3cccc4c3c(c12)C(=O)N(CCN(C)C)C4=O [Example 9, methyl {2-[2-(dimethylamino)ethyl]-1,3-dioxo-2,3-dihydro-1H-dibenzo[de,h]isoquinolin-11-yl}carbamate] | induced a decrease in the migration level | significantly greater cell migration activity than the closest compounds known in the art, or similar cell migration activity at significantly lower concentrations | – | Emax at 0.1 µM ([2]; 12 and 22 hours on the 25% of most motile cells): -31%; Emax at 1 µM (A549 (Lung cancer) cells; 12 hours on the 25% of most motile cells): -40%; Emax at 1 µM (A549 (Lung cancer) cells; [6]): -28% |
| – | CN(C)CCN1C(=O)c2cccc3cc4c(NC(=O)Nc5ccc6c(c5)OCO6)cccc4c(c23)C1=O [Example 15, 1-(1,3-benzodioxol-5-yl)-3-{2-[2-(dimethylamino)ethyl]-1,3-dioxo-2,3-dihydro-1H-dibenzo[de,h]isoquinolin-8-yl}urea hydrochloride] | – | significantly greater cell migration activity than the closest compounds known in the art, or similar cell migration activity at significantly lower concentrations | -51 | – |

| Structure (SMILES) | IC50 [1] [µM] | migration level of cancer cells [3] | cell migration activity compared with the closest compounds known in the art [3] | Emax at 1 µM [2, 6] [%] | other results |
| --- | --- | --- | --- | --- | --- |
| CN(C)CCN1C(=O)c2cccc3cc4cccc(NC(=O)Cc5ccc(Cl)cc5)c4c(c23)C1=O [Example 11, 2-(4-chlorophenyl)-N-{2-[2-(dimethylamino)ethyl]-1,3-dioxo-2,3-dihydro-1H-dibenzo[de,h]isoquinolin-11-yl}acetamide] | > 10 | induced a decrease in the migration level | significantly greater cell migration activity than the closest compounds known in the art, or similar cell migration activity at significantly lower concentrations | -18 | Emax at 1 µM [4]: -37%; Emax at 0.1 µM ([4]; at 10^−7 M): -27% |
| CN(C)CCN1C(=O)c2cccc3cc4c(/N=C/c5ccc6c(c5)OCO6)cccc4c(c23)C1=O [Example 8, 8-{[(1E)-1,3-benzodioxol-5-ylmethylidene]amino}-2-[2-(dimethylamino)ethyl]-1H-dibenzo[de,h]isoquinoline-1,3(2H)-dione] | 1 to 5 | induced a decrease in the migration level | significantly greater cell migration activity than the closest compounds known in the art, or similar cell migration activity at significantly lower concentrations | -30 | Emax at 0.01 µM [4]: -29% |
| CCCCCCCCOC(=O)Nc1cccc2cc3cccc4c3c(c12)C(=O)N(CCN(C)C)C4=O [Example 25, octyl {2-[2-(dimethylamino)ethyl]-1,3-dioxo-2,3-dihydro-1H-dibenzo[de,h]isoquinolin-11-yl}carbamate] | 5 to 10 | induced a decrease in the migration level | – | – | Emax at 0.1 µM (A549 (Lung cancer) cells; [6]): -28%; Emax at 0.01 µM [4]: -21% |
| CN(C)CCN1C(=O)c2cccc3cc4cccc(NC(=O)Oc5ccc(F)cc5)c4c(c23)C1=O [Example 24, 4-fluorophenyl {2-[2-(dimethylamino)ethyl]-1,3-dioxo-2,3-dihydro-1H-dibenzo[de,h]isoquinolin-11-yl}carbamate] | > 10 | induced a decrease in the migration level | significantly greater cell migration activity than the closest compounds known in the art, or similar cell migration activity at significantly lower concentrations | – | Emax at 0.01 µM (A549 (Lung cancer) cells; 22 hours on the 25% of most motile cells, at 10^−8 M): -31% |
